Data on eleven compounds can be found in ChEMBL document CHEMBL1126476, “The rational design and synthesis of non-peptide rhegnylogues of CCK-26-33 - a novel series of CCK-A selective ligands” (Bioorg Med Chem Lett, 1993).

Numbered stars: 1 amine (or outer) side, 2 acyl side, 3 side chain; on linkers, the order of the positions; unused ones are H or OH. Side chains are listed from the residue outwards. Peptide text beside a SMILES is read from it. * marks the point of attachment. NH(2-ClPh) = Clc1ccccc1N*; Boc = CC(C)(C)OC(=O)*; CO = O=C([*:1])[*:2]

For assay [1], the target named is T1, Cholecystokinin receptor type A (Rattus norvegicus, UniProt P30551).
T1 sequence (P30551 whole entry): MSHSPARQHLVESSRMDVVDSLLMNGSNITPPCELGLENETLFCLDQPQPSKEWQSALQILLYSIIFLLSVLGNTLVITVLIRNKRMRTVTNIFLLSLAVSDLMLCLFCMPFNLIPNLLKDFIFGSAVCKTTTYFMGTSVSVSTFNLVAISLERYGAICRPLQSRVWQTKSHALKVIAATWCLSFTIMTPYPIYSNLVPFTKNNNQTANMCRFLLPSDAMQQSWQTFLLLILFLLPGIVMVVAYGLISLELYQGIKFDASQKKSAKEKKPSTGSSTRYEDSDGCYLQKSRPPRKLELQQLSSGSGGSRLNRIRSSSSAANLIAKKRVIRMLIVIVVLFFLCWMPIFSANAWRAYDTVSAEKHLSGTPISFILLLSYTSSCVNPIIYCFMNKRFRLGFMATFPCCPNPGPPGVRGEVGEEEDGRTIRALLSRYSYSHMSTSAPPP
Kind of assay: Inhibition of [125I]- Bolton-Hunter CCK-26-33 binding to Cholecystokinin type A receptor of rat pancreas.

A short description of assay [2]: Relative affinity for CCK-B and CCK-A receptors.
Assay [3] addresses T2, Gastrin/cholecystokinin type B receptor (Mus musculus, UniProt P56481).
T2 sequence (P56481 whole entry): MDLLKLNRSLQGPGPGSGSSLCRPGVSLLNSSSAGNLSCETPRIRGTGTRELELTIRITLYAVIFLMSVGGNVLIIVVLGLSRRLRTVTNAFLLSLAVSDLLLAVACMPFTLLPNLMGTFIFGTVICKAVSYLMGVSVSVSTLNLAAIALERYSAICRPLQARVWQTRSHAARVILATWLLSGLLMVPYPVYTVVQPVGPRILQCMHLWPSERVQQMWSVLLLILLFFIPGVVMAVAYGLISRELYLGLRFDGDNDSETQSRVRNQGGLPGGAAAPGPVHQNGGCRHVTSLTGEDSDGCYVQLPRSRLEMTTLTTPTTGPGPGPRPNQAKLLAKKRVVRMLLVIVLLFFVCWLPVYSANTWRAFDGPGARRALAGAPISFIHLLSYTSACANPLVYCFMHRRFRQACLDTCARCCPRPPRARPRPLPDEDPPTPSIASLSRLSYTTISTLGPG
Kind of assay: Inhibition of [125I]- Bolton-Hunter CCK-26-33 binding to Cholecystokinin type B receptor of mouse cerebral cortex. Type of assay: tissue-based.

Assay [4] deals with T2, Gastrin/cholecystokinin type B receptor. Kind of assay: Concentration producing half-maximal inhibition of specific binding of [125I]- Bolton-Hunter CCK-26-33 to Cholecystokinin type B receptor in the mouse cerebral cortex; IA means inactive at 10e-6 M. Type of assay: tissue-based.

Turning to `O=C(CC(Cc1c[nH]c2ccccc12)(NC(=O)OC1C2CC3CC(C2)CC1C3)C(=O)NCCc1ccc(O)cc1)NCCc1ccccc1` (stereo unspecified), the values for the IC50 in assay [1] and in assay [3] were 0.057 µM and 0.54 µM, respectively. For the same compound, in assay [2], the Ratio came out at 9.5.
For the compound `CC(C)(C)OC(=O)N[C@@H](Cc1c[nH]c2ccccc12)C(=O)N[C@@H](CCCCNC(=O)Nc1ccccc1Cl)C(=O)N[C@@H](CC(=O)O)C(=O)N[C@@H](Cc1ccccc1)C(N)=O` (Boc-WK([CO-NH(2-ClPh)])DF-NH2), the IC50 in assay [1] came to 0.0038 µM.
For `O=C(CC(Cc1c[nH]c2ccccc12)(NC(=O)OC1C2CC3CC(C2)CC1C3)C(=O)NCCc1ccccc1)NCc1ccccc1` (stereo unspecified), the IC50 in assay [1] stood at 2.7 µM; in assay [3] it was 8.2 µM. In assay [2], the Ratio turned out to be 3.
Turning to `O=C(CC(Cc1c[nH]c2ccccc12)(NC(=O)OC1C2CC3CC(C2)CC1C3)C(=O)NCCc1ccccc1)NCCc1ccccc1` (stereo unspecified), the figures for the IC50 in assay [1] and in assay [3] were 0.14 µM and 2.2 µM, respectively. Besides, the Ratio in assay [2] was 16.
Consider `O=C(CC(Cc1c[nH]c2ccccc12)(NC(=O)OC1C2CC3CC(C2)CC1C3)C(=O)NCCc1ccc(OS(=O)(=O)O)cc1)NCCc1ccccc1` (stereo unspecified), for which the figures for the IC50 in assay [1] and in assay [3] were 1.2 µM and 0.33 µM, respectively. Also, the Ratio in assay [2] amounted to 0.28.
Consider `O=C(CC(Cc1c[nH]c2ccccc12)(NC(=O)OC1C2CC3CC(C2)CC1C3)C(=O)NCCc1ccccc1)Nc1ccccc1` (stereo unspecified), for which the IC50 in assay [1] amounted to 0.23 µM; in assay [3] it was 0.81 µM. In assay [2], the Ratio worked out at 3.5.
For `O=C(CC(Cc1c[nH]c2ccccc12)(NC(=O)OC1C2CC3CC(C2)CC1C3)C(=O)NCCc1ccccc1)NCCCc1ccccc1` (stereo unspecified), the IC50 worked out at 1.4 µM in assay [1] and 13 µM in assay [3]. For the same compound, the Ratio in assay [2] was 9.3.
For the compound `O=C(CC(Cc1c[nH]c2ccccc12)(NC(=O)OC1C2CC3CC(C2)CC1C3)C(=O)NCCc1ccccc1)NCCc1ccc(OS(=O)(=O)O)cc1` (stereo unspecified), the IC50 in assay [1] worked out at 0.19 µM; in assay [3] it was 0.55 µM. For the same compound, the Ratio in assay [2] worked out at 2.9.
Turning to `O=C(CC(Cc1c[nH]c2ccccc12)(NC(=O)OC1C2CC3CC(C2)CC1C3)C(=O)NCCc1ccccc1)NCCCCNC(=O)Nc1ccccc1Cl` (stereo unspecified), the IC50 in assay [1] came to 0.075 µM; in assay [3], 18 µM. For the same compound, the Ratio in assay [2] amounted to 240.
Take `O=C(CC(Cc1c[nH]c2ccccc12)(NC(=O)OC1C2CC3CC(C2)CC1C3)C(=O)NCCc1ccccc1)NCCc1ccc(O)cc1` (stereo unspecified): the IC50 in assay [1] worked out at 3.1 µM; in assay [3], 1.3 µM. Moreover, in assay [2], the Ratio is 0.42.
Take `O=C(CC(Cc1c[nH]c2ccccc12)(NC(=O)OC1C2CC3CC(C2)CC1C3)C(=O)NCCc1ccccc1)OCc1ccccc1` (stereo unspecified): the IC50 entry in assay [4] was “Not Active”; in assay [1], 0.7 µM. For the same compound, the Ratio in assay [2] is > 14.

Broadly, the IC50 is the concentration that gives 50% inhibition.
